Consider one molecule from patent US20160022775A1, “TREATING LYSOSOMAL STORAGE DISEASE” (UNIVERSITY OF ROCHESTER, priority 2013, published 2016).

Molecules are shown by their SMILES.

In data set [1] the test system is lysosomal pH of cells exposed to psychosine. As to the kind of experiment: Lysosomal pH in cells exposed to psychosine. Conditions: cells exposed to psychosine versus normal cells. Type of data set: cell-based. An excerpt: The effects of cytoskeletal collapse and changes in lysosomal pH were examined. […] The agents that protect both division and survival also restore lysosomal pH to a normal range. However, […] that rescue cell division examined for their effects on lysosomal pH also restore normal levels of pH. Thus, rescuing lysosomal pH is not sufficient to rescue cell survival. Further, agents chosen solely on the basis of rescue of lysosomal pH are not sufficient to also function as rescue agents in cell survival.

In another data set the test system is OPCs. As to the kind of experiment: OPC division by clonal analysis in the presence of psychosine. Conditions: OPCs grown in the presence of PDGF for 6 days. Type of data set: cell-based, rat. The procedure:
As shown, by day 3 even 3.3 μM PC caused marked cell death. Division was analyzed by clonal analysis, and exposure to 1 μM PC caused a marked reduction in clonal size for cells grown in the presence of PDGF for 6 days.
(§1) Studies on division and survival of OPCs exposed to 0.1, 0.5, 1, 2, 5 or 10 μM PC, GPS or LS were conducted for 1, 2, 3 or 5 days. These experiments followed standard procedures (see Mayer et al. PNAS, 91: 7496-7500 (1994); Dietrich et al. J. Biol. 5: e22 (2006); and Han et al. J. Biol. 7 (4):12 (2008)) except that cell death was quantified using calcein AM and propidium iodide (PI) labeling of live cultures was used to identify live and dead cells, respectively. […] These dyes effectively overcome the problems with dyes for which cell numbers are inferred from metabolic activity (e.g., MTT, Alamar Blue), and provide quantitative information on cell numbers. Independent confirmation was obtained in all cases by visual examination of cultures. In these, and all other cases, all experiments were repeated at least three times, and all data points were collected in triplicate. All experiments were conducted in conditions of 5% O2, to more closely mimic physiological oxygen concentrations.

Data set [2] relates to oligodendrocyte progenitor cells. As to the kind of experiment: Migration of oligodendrocyte progenitor cells outward from a drop of cells. Conditions: OPCs exposed to PDGF; not a lethal level. The data set is classed as cell-based. As for the experimental part: Exposure of oligodendrocyte progenitor cells to 1 μM psychosine is enough to greatly reduce cell migration.
Another aspect of psychosine function is to cause alterations in the cytoskeleton, which in dividing cells is manifested as a failure of migration. The migration of oligodendrocyte progenitor cells outward from a drop of cells was examined. Cells were stained with calcein to label living cells and propidium iodide (PI) to label dead cells. […] This effect was observed on multiple cell types.

The test system of data set [3] is human fetal neuroepithelial stem cells (hNSCs). As to the kind of experiment: Sensitivity of human CNS precursor cells to toxic lipids. Type of data set: cell-based.
The subject of data set [4] is immortalized cell line characterized as an oligodendrocyte progenitor cell line. Particulars: Zaka et al.; over 24 hours; cited from earlier work.
The next data set deals with primary OPCs. As to the kind of experiment: Survival of OPCs exposed to toxic lipids (calcein AM / propidium iodide, CELIGO). The data set is classed as cell-based. As for the experimental part: Whether toxic lipids have similar effects on the function of oligodendrocyte precursor cells (OPCs, the direct ancestors of myelin-forming oligodendrocytes), due to the common features of myelin breakdown and failure to repair such damage in LSDs, was determined. These experiments all used standard techniques (see Mayer et al. PNAS, 91: 7496-7500 (1994); Ibarrola et al. Dev. Biol. 180: 1-121 (1996); Smith et al. PNAS 97: 10032-10037 (2000); Power et al. Dev. Biol. 245: 362-375 (2002); Dietrich et al. J. Biol. 5: e22 (2006); Li et al. PLoS Biol. 5: e35 (2007)), as adapted to enable rapid automated analysis of microscopy images captured using the CELIGO® imaging system (Brooks Automation, Chelmsford, Mass.). This system enables collection of data using brightfield and three-color fluorescence and provides similar information to be obtained at the single cell level in adherent cell cultures as yielded by flow cytometry. This approach enables quantitatively analysis of 80 different experimental conditions (in triplicate) per hour.
as §1
The sensitivity of primary OPCs to PC was determined. The sensitivity of the cells to glucopsychosine (GPC) and lysosulfatide (LS) was also examined. […] Thus, OPCs are even more sensitive to PC than oligodendrocytes, which are sensitive at 10 μM psychosine. More critically, they are an order of magnitude more sensitive than indicated by studies described in Zaka et al. (Mol. Cell Neurosci. 30 (3): 398-407 (2005)) on immortalized cell lines.

The next data set has as its system oligodendrocytes. Particulars: cited from earlier work.

Consider `CCCCCCCCCCCCC/C=C/[C@@H](O)[C@@H](N)CO[C@@H]1O[C@H](CO)[C@H](O)[C@H](O)[C@H]1O` [psychosine], for which, in data set [1], the “effect on pH of exposed cells” value was “becomes more alkaline”. Further, in the data set on OPCs, the “concentration causing marked reduction in clonal size” value turned out to be 1 µM. Besides, in data set [2], the “concentration enough to greatly reduce cell migration” value is 1 µM. Moreover, the “vulnerability of hNSCs compared with rat OPCs” value in data set [3] is listed as “at least as vulnerable”. The “concentration at which immortalized OPC line is vulnerable / marked cell death” value in data set [4] is 50 µM. Besides, in the data set with primary OPCs, the “exposure level as low as which toxic for OPCs” value was 5 µM. Also, in the data set with primary OPCs (purified OPCs, by day 3, calcein AM, CELIGO), the “concentration causing marked cell death” value was 3.3 µM. In the data set on oligodendrocytes, the “concentration at which oligodendrocytes are sensitive” value is 10 µM.
